Assay results from patent publication US8633251B2, “Derivatives of aminoalkanols, method of obtaining of aminoalkanols and their use” (Uniwersytet Jagiellonski, priority 2008, dated 2014).
Read-outs that look alike come from different tables or passages of the source.

Columns and labels:
[1] = tested on: maximal electroshock seizures; assay: Maximum Electroshock Seizure (MES) test, mice; format: in vivo; conditions: mice; for responders at 100 mg/kg: read-out: MES, No. of protected animals/No. of used animals (converted)
Method: (§1) In order to define anticonvulsant activity, screening tests were performed, using animal models of seizures. […] Each substance (after dissolving in methylcellulose) was normally tested in doses 30, 100, and 300 mg/kg body weight (b.w.) (mice) or in 30 and 50 mg/kg b.w. (rats) in two possible routes of administration: intraperitoneal (i.p.) or oral (p.o.). Appropriate tests were performed 0.5 and 4 h after administration of the compound. […] (mice) the tests were also performed in doses 10 and 3 mg/kg b.w.
Maximum Electroshock Seizure (MES) test is an electric test, verifying activity towards generalized tonic-clonic seizures (grand mal epilepsy). […] Its procedure consists in administration to an animal a mentioned dose, and after 0.5 or 4 h attaching corneal electrodes (after anesthetic eye-drops: 0.5% tetracaine hydrochloride in 0.9% NaCl) and turning on electric current (60 Hz, 0.2 s, 50 mA (mice) or 150 mA (rats)). […] Normally, in the dose 30 mg/kg b.w. the test is done in 1 mouse after 0.5 or 4 h, in the dose 100 mg/kg b.w.—in 3 mice, and in the dose 300 mg/kg b.w.—in 1 mouse.

[2] = tested on: neurotoxicity (rotarod); assay: Neurotoxicity test (TOX), rotarod, mice; format: in vivo
Method: as §1
It is performed with use of rotarod test. The animal is placed on a plastic rod (1 inch in diameter), rotating 6 rpm. The rod is placed on a level discouraging the animal to jump off. […] Neurotoxicity is stated if the animal cannot stay on the rod for 1 min. in any of 3 trials. Normally the test is performed in dose 30 mg/kg b.w. in 4 mice (0.5 h) and in 2 mice (4 h), in the dose 100 mg/kg b.w. in 8 mice (0.5 h) and in 4 mice (4 h) and in the dose 300 mg/kg b.w. in 4 mice (0.5 h) and 2 mice (4 h).

[3] = dose 100 mg/kg b.w., time 0.5 h
[4] = mice, dose 100 mg/kg b.w., time 0.5 h
[5] = mice, dose 300 mg/kg b.w., time 0.5 h
[6] = mice, dose 300 mg/kg b.w., time 4 h
[7] = mice, dose 30 mg/kg b.w., 0.5 h
[8] = mice, dose 100 mg/kg b.w., 0.5 h
[9] = mice, dose 300 mg/kg b.w., 0.5 h

Cc1cccc(C)c1OCCN(C)C(C)CO.Cl (racemic) [Compound 14, R,S-2N-[(2,6-dimethylphenoxy)ethyl]-2N-methylamino-1-propanol hydrochloride]
MES, No. of protected animals/No. of used animals ([1]; dose 30 mg/kg b.w., time 0.5 h): 1/1 | MES, No. of protected animals/No. of used animals [1, 3]: 1/1 | TOX, No. of animals exhibiting motor impairment/no. of used animals ([2]; mouse, in vivo, 30 mg/kg): 1/4 | TOX, No. of animals exhibiting motor impairment/no. of used animals ([2]; mouse, in vivo, 100 mg/kg): 8/8 | TOX, No. of animals exhibiting motor impairment/no. of used animals ([2]; mouse, in vivo, 300 mg/kg): 4/4

Cc1cccc(C)c1OCCN(C)CC(O)c1ccccc1.Cl (racemic) [Compound 22, R,S-2N-[(2,6-dimethylphenoxy)ethyl]-2N-methylamino-1-phenylethanol hydrochloride]
MES, No. of protected animals/No. of used animals [1, 3]: 2/2 | MES, No. of protected animals/No. of used animals ([1]; dose 100 mg/kg b.w., time 4 h): 2/2 | TOX, No. of animals exhibiting motor impairment/no. of used animals [2, 4]: 8/8 | TOX, No. of animals exhibiting motor impairment/no. of used animals [2, 5]: 4/4

Cc1cccc(OCCCNC(C)CO)c1C (racemic) [Compound 46, R,S-2N-[(2,3-dimethylphenoxy)propyl]amino-1-propanol]
MES, No. of protected animals/No. of used animals [1, 3]: 3/3 | TOX, No. of animals exhibiting motor impairment/no. of used animals ([2]; mouse, in vivo, 100 mg/kg): 8/8 | TOX, No. of animals exhibiting motor impairment/no. of used animals ([2]; mouse, in vivo, 300 mg/kg): 4/4

CCC(CO)NCCCOc1cccc(C)c1C (racemic) [Compound 48, R,S-2N-[(2,3-dimethylphenoxy)propyl]amino-1-butanol]
MES, No. of protected animals/No. of used animals [1, 3]: 3/3 | TOX, No. of animals exhibiting motor impairment/no. of used animals ([2]; mouse, in vivo, 100 mg/kg): 8/8 | TOX, No. of animals exhibiting motor impairment/no. of used animals ([2]; mouse, in vivo, 300 mg/kg): 4/4

Cc1cccc(OCCCNCC(O)c2ccccc2)c1C (racemic) [Compound 49, R,S-2N-[(2,3-dimethylphenoxy)propyl]amino-1-phenylethanol]
MES, No. of protected animals/No. of used animals ([1]; dose 300 mg/kg b.w., time 0.5 h): 1/1 | TOX, No. of animals exhibiting motor impairment/no. of used animals ([2]; mice, dose 30 mg/kg b.w., time 0.5 h): 1/4 | TOX, No. of animals exhibiting motor impairment/no. of used animals ([2]; mice, dose 30 mg/kg b.w., time 4 h): 1/2 | TOX, No. of animals exhibiting motor impairment/no. of used animals [2, 4]: 6/8 | TOX, No. of animals exhibiting motor impairment/no. of used animals ([2]; mice, dose 100 mg/kg b.w., time 4 h): 3/4 | TOX, No. of animals exhibiting motor impairment/no. of used animals [2, 5]: 4/4 | TOX, No. of animals exhibiting motor impairment/no. of used animals [2, 6]: 2/2

Cc1cccc(C)c1OCCCNCC(C)O (racemic) [Compound 50, R,S-1N-[(2,6-dimethylphenoxy)propyl]amino-2-propanol]
MES, No. of protected animals/No. of used animals ([1]; dose 30 mg/kg b.w., time 0.5 h): 1/1 | MES, No. of protected animals/No. of used animals [1, 3]: 3/3 | TOX, No. of animals exhibiting motor impairment/no. of used animals ([2]; mouse, in vivo, 30 mg/kg): 3/4 | TOX, No. of animals exhibiting motor impairment/no. of used animals ([2]; mouse, in vivo, 300 mg/kg): 4/4

Cc1cccc(C)c1OCCCNC(C)CO (racemic) [Compound 51, R,S-2N-[(2,6-dimethylphenoxy)propyl]amino-1-propanol]
MES, No. of protected animals/No. of used animals ([1]; dose 30 mg/kg b.w., 0.5 h): 1/1 | MES, No. of protected animals/No. of used animals ([1]; dose 100 mg/kg b.w., 0.5 h): 3/3 | TOX, No. of animals exhibiting motor impairment/no. of used animals ([2]; mouse, in vivo, 30 mg/kg): 2/4 | TOX, No. of animals exhibiting motor impairment/no. of used animals ([2]; mouse, in vivo, 300 mg/kg): 4/4

CCC(CO)NCCCOc1c(C)cccc1C.Cl (racemic) [Compound 55, R,S-2N-[(2,6-dimethylphenoxy)propyl]amino-1-butanol hydrochloride]
MES, No. of protected animals/No. of used animals ([1]; dose 30 mg/kg b.w., 0.5 h): 1/1 | MES, No. of protected animals/No. of used animals ([1]; dose 100 mg/kg b.w., 0.5 h): 3/3 | TOX, No. of animals exhibiting motor impairment/no. of used animals ([2]; mouse, in vivo, 100 mg/kg): 8/8 | TOX, No. of animals exhibiting motor impairment/no. of used animals ([2]; mouse, in vivo, 300 mg/kg): 4/4

Cc1cccc(C)c1OCCCNCC(O)c1ccccc1 (racemic) [Compound 56, R,S-2N-[(2,6-dimethylphenoxy)propyl]amino-1-phenylethanol]
MES, No. of protected animals/No. of used animals ([1]; dose 100 mg/kg b.w., 0.5 h): 1/1 | TOX, No. of animals exhibiting motor impairment/no. of used animals [2, 7]: 2/4 | TOX, No. of animals exhibiting motor impairment/no. of used animals [2, 8]: 8/8 | TOX, No. of animals exhibiting motor impairment/no. of used animals [2, 9]: 4/4

Cc1cccc(Cl)c1OCCCNC(C)CO (racemic) [Compound 57, R,S-2N-[(2-chlor-6-methylphenoxy)propyl]amino-1-propanol]
TOX, No. of animals exhibiting motor impairment/no. of used animals [2, 7]: 4/4 | TOX, No. of animals exhibiting motor impairment/no. of used animals ([2]; mice, dose 30 mg/kg b.w., 4 h): 1/2 | TOX, No. of animals exhibiting motor impairment/no. of used animals [2, 8]: 8/8 | TOX, No. of animals exhibiting motor impairment/no. of used animals [2, 9]: 4/4

CCC(CO)NCCCOc1c(C)cccc1Cl.Cl (racemic) [Compound 58, R,S-2N-[(2-chlor-6-methylphenoxy)propyl]amino-1-butanol hydrochloride]
MES, No. of protected animals/No. of used animals ([1]; dose 100 mg/kg b.w., 0.5 h): 2/3 | TOX, No. of animals exhibiting motor impairment/no. of used animals [2, 8]: 6/8 | TOX, No. of animals exhibiting motor impairment/no. of used animals [2, 9]: 4/4 | TOX, No. of animals exhibiting motor impairment/no. of used animals ([2]; mice, dose 300 mg/kg b.w., 4 h): 1/1

CNC(=O)C(C)NC(=O)COc1c(C)cccc1C (racemic) [Compound 67, D,L-2N-[(2,6-dimethylphenoxy)acetyl]aminopropionic acid N-methylamide]
responders at 100 mg/kg ([1]; Mus musculus, dose 100 mg/kg b.w., 0.5 h): 66.7% | responders at 300 mg/kg ([1]; Mus musculus, dose 300 mg/kg b.w., 0.5 h, read-out: MES, No. of protected animals/No. of used animals): 100% | TOX, No. of animals exhibiting motor impairment/no. of used animals [2, 8]: 1/8 | TOX, No. of animals exhibiting motor impairment/no. of used animals [2, 9]: 4/4

CCC(NC(=O)COc1c(C)cccc1Cl)C(N)=O (racemic) [Compound 78, D,L-2N-[(2-chlor-6-methylphenoxy)acetyl]aminobutyramide]
TOX, No. of animals exhibiting motor impairment/no. of used animals [2, 9]: 1/4

Cc1cccc(C)c1OCCN[C@@H]1CCCC[C@H]1O (relative stereo) [Compound 18, D,L-trans-2N-[(2,6-dimethylphenoxy)ethyl]amino-1-cyclohexanol]
MES, No. of protected animals/No. of used animals [1, 3]: 3/3 | TOX, No. of animals exhibiting motor impairment/no. of used animals [2, 4]: 7/8 | TOX, No. of animals exhibiting motor impairment/no. of used animals [2, 5]: 4/4

Cc1cccc(Cl)c1OCCN[C@@H]1CCCC[C@H]1O (relative stereo) [Compound 30, D,L-trans-2N-[(2-chlor-6-methylphenoxy)ethyl]amino-1-cyclohexanol]
MES, No. of protected animals/No. of used animals ([1]; dose 30 mg/kg b.w., time 0.5 h): 1/1 | MES, No. of protected animals/No. of used animals [1, 3]: 1/1 | TOX, No. of animals exhibiting motor impairment/no. of used animals [2, 4]: 8/8 | TOX, No. of animals exhibiting motor impairment/no. of used animals [2, 5]: 4/4

Cc1cc(C)c(OCCN[C@@H]2CCCC[C@H]2O)c(C)c1 (relative stereo) [Compound 44, D,L-trans-2N-[(2,4,6-trimethylphenoxy)ethyl]amino-1-cyclohexanol]
MES, No. of protected animals/No. of used animals ([1]; dose 10 mg/kg b.w., time 0.5 h): 1/4 | MES, No. of protected animals/No. of used animals ([1]; dose 30 mg/kg b.w., time 0.5 h): 1/1 | TOX, No. of animals exhibiting motor impairment/no. of used animals ([2]; mice, dose 10 mg/kg b.w., time 0.5 h): 1/4 | TOX, No. of animals exhibiting motor impairment/no. of used animals [2, 4]: 8/8

CCC(CO)NCCOc1cccc(C)c1C (stereo not shown) [Compound 2, R,S-2N-[(2,3-dimethylphenoxy)ethyl]amino-1-butanol]
MES, No. of protected animals/No. of used animals [1, 3]: 3/3 | TOX, No. of animals exhibiting motor impairment/no. of used animals ([2]; mouse, in vivo, 100 mg/kg): 8/8 | TOX, No. of animals exhibiting motor impairment/no. of used animals ([2]; mouse, in vivo, 300 mg/kg): 4/4

Cc1cccc(OCCNC(C)(C)CO)c1C [Compound 3, 2N-[(2,3-dimethylphenoxy)ethyl]amino-2-methyl-1-propanol]
responders at 100 mg/kg ([1]; Mus musculus, dose 100 mg/kg b.w., time 0.5 h): 66.7% | TOX, No. of animals exhibiting motor impairment/no. of used animals [2, 4]: 7/8 | TOX, No. of animals exhibiting motor impairment/no. of used animals [2, 5]: 4/4

Cc1ccc(C)c(OCCNCC(C)O)c1 (stereo not shown) [Compound 5, R,S-1N-[(2,5-dimethylphenoxy)ethyl]amino-2-propanol]
MES, No. of protected animals/No. of used animals [1, 3]: 3/3 | TOX, No. of animals exhibiting motor impairment/no. of used animals ([2]; mouse, in vivo, 300 mg/kg): 4/4

Cc1ccc(C)c(OCCNCC(O)c2ccccc2)c1 (stereo not shown) [Compound 9, R,S-2N-[(2,5-dimethylphenoxy)ethyl]amino-1-phenylethanol]
TOX, No. of animals exhibiting motor impairment/no. of used animals [2, 4]: 7/8 | TOX, No. of animals exhibiting motor impairment/no. of used animals [2, 5]: 3/4 | TOX, No. of animals exhibiting motor impairment/no. of used animals [2, 6]: 1/2

Cc1cc(Cl)ccc1OCCNCC(O)c1ccccc1 (stereo not shown) [Compound 37, R,S-2N-[(4-chlor-2-methylphenoxy)ethyl]amino-1-phenylethanol]
TOX, No. of animals exhibiting motor impairment/no. of used animals [2, 5]: 1/4

Cc1cccc(Cl)c1OCC(=O)NCCCC(=O)O [Compound 79, 4N-[(2-chlor-6-methylphenoxy)acetyl]aminobutyric acid]
TOX, No. of animals exhibiting motor impairment/no. of used animals [2, 9]: 1/4

Cc1cc(Cl)ccc1OCC(=O)NCC(O)c1ccccc1 (stereo not shown) [Compound 82, R,S-2N-[(4-chlor-2-methylphenoxy)acetyl]amino-1-phenylethanol]
TOX, No. of animals exhibiting motor impairment/no. of used animals [2, 8]: 2/8 | TOX, No. of animals exhibiting motor impairment/no. of used animals [2, 9]: 4/4 | TOX, No. of animals exhibiting motor impairment/no. of used animals ([2]; mice, dose 300 mg/kg b.w., 4 h): 1/2

Cc1cc(C)c(OCC(=O)NCC(O)c2ccccc2)c(C)c1 (stereo not shown) [Compound 83, R,S-2N-[(2,4,6-trimethylphenoxy)acetyl]amino-1-phenylethanol]
TOX, No. of animals exhibiting motor impairment/no. of used animals [2, 9]: 4/4
